Source: US10894777B2, “TG2 inhibitor piperazine compounds and uses thereof” (UNIVERSITY OF OTTAWA, priority 2016, dated 2021)

How the values were obtained:
TG2 [1] = molecular target: T1, TG2 (Homo sapiens, UniProt P21980); experiment: Colorimetric transamidase activity assay (AL5 substrate), hTG2; assay type: biochemical; settings: for kinact/KI: read-out: kinact/KI (10^3M^−1 min^−1); for enzyme inactivation, relative observed rate constants (kobs): high concentration of inhibitor (18 μM, FIG. 43)
T1 sequence (P21980 1-687): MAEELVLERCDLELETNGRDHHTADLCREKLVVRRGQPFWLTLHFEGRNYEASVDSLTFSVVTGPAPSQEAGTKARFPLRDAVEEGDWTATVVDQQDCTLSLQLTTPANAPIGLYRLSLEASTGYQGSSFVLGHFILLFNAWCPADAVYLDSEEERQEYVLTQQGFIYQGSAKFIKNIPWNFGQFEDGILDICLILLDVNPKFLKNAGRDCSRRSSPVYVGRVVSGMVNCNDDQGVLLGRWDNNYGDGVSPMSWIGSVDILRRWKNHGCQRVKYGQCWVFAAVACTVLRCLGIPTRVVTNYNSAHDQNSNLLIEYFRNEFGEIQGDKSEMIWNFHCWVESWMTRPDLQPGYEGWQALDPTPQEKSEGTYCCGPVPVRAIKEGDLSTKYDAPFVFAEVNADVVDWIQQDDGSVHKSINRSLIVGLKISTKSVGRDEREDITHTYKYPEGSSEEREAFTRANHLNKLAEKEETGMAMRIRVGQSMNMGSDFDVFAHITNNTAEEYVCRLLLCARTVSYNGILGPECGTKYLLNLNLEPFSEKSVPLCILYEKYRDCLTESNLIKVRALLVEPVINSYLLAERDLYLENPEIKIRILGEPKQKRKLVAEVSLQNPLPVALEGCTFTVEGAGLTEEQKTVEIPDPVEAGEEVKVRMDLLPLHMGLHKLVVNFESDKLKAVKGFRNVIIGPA
Method: In Vitro Assays. Colorimetric transamidase activity assay. The activities of hTG1, hTG2 and hTG6 were measured via a colorimetric assay using the chromogenic substrate Cbz-Glu(γ-p-nitrophenyl ester)Gly (AL5). The assay was conducted at 25° C. in 100 mM MOPS buffer (pH 6.5) containing 3.0 mM CaCl2 and 50 μM EDTA. […] A stock solution of AL5 was prepared in DMSO such that the final concentration of this co-solvent was constant at 2.5% v/v. Stock solutions of the inhibitors were made in the buffer system previously described. The reaction was initiated with the addition of 40-60 mU/mL of the respective enzyme (0.10 μM hTG1, 0.25 μM hTG2 or 0.32 μM hTG6). Product formation was monitored at 405 nm in a polystyrene 96-well microplate using a BioTek Synergy 4 plate reader. […] Observed first-order rate constants of inactivation (kobs) were determined from non-linear regression fit to a mono-exponential model (Equation 1) of the observed absorbance of the enzymatic hydrolysis product, p-nitrophenolate (pNP). […] Experiments were done in triplicate and variation between repeats was less than 30%.

TG2 [2] = molecular target: T1, TG2; experiment: Kinetic inactivation of purified recombinant human TG2, continuous spectrophotometric activity assay (Examples 3, 10); assay type: biochemical; design: made in house; settings: Table 4; for kinact/KI: read-out: kinact/Ki (μM^−1 min^−1), for ^a no saturation observed, efficiency obtained from initial slope
Method: Kinetic studies were carried out in vitro, using purified recombinant human TG2 (Roy, I. et al., Protein Expr. Purif. 87: 41-46, 2013) and a direct, continuous spectrophotometric activity assay (Leblanc, A. et al., Biochemistry 40: 8335-8342, 2001).
Kinetics. Kinetic runs were performed at 25° C. in 100 mM MOPS buffer (pH 7.0) containing 3 mM CaCl2 and 50 μM EDTA. […] Stock solutions of the substrate and inhibitors were prepared in DMF such that the final concentration of this co-solvent was constant at 10% v/v. Reactions were initiated with the addition of enzyme with an activity of approximately 0.05 U/mL. Kinetic evaluation was carried out by the method of Stone and Hofsteenge (Stone, S. R. and Hofsteenge, J., Biochem. J. 230: 497-502, 1985). […] Observed first-order rate constants of inactivation were determined from non-linear regression, to a mono-exponential model. These rate constants were in turn fit to equation 1 by non-linear regression, providing the kinetic parameters
Kinetic parameters were determined as described above.

[3] = Table 7, read-out: kinact (converted)
[4] = Table 8, read-out: kinact (converted)
[5] = Table 5, read-out: kinact (converted)

Row | SMILES | kinact (TG2 [1]; [3]) | kinact/KI (TG2 [1]; Table 7) | melting point | kinact (TG2 [2]) | kinact/KI (TG2 [2]) | further results
1 | C=CC(=O)NCCCC[C@H](NC(=O)OCc1ccccc1)C(=O)N1CCN(S(=O)(=O)Cc2ccccc2)CC1 [Compound 131, (S)-benzyl (6-acrylamido-1-(4-(benzylsulfonyl)piperazin-1-yl)-1-oxohexan-2-yl)carbamate] | 0.00783 s⁻¹ | 582 M⁻¹ s⁻¹ | 50 to 52 °C | 0.00907 s⁻¹ | 1900 M⁻¹ s⁻¹ | 
2 | C=CC(=O)NCCCC[C@H](NC(=O)OCc1ccccc1)C(=O)N1CCN(S(=O)(=O)CC)CC1 [Compound 134, (S)-benzyl (6-acrylamido-1-(4-(ethylsulfonyl)piperazin-1-yl)-1-oxohexan-2-yl)carbamate] | 0.0237 s⁻¹ | 657 M⁻¹ s⁻¹ |  |  |  | 
3 | C=CC(=O)NCCCC[C@H](NC(=O)OCc1ccccc1)C(=O)N1CCN(S(=O)(=O)c2ccc3ccccc3c2)CC1 [Compound 129, (S)-benzyl (6-acrylamido-1-(4-(naphthalen-2-ylsulfonyl)piperazin-1-yl)-1-oxohexan-2-yl)-carbamate] | 0.00633 s⁻¹ | 955 M⁻¹ s⁻¹ | 65 to 66 °C | 0.00643 s⁻¹ | 2500 M⁻¹ s⁻¹ | 
4 | C=CC(=O)NCCCC[C@H](NC(=O)OCc1ccccc1)C(=O)N1CCN(S(=O)(=O)C(C)C)CC1 [Compound 133, (S)-benzyl(6-acrylamido-1-(4-(isopropylsulfonyl)piperazin-1-yl)-1-oxohexan-2-yl)carbamate] | 0.00833 s⁻¹ | 912 M⁻¹ s⁻¹ | 48 to 49 °C | 0.0115 s⁻¹ | 2800 M⁻¹ s⁻¹ | 
5 | C=CC(=O)NCCCC[C@H](NC(=O)OCc1ccccc1)C(=O)N1CCN(S(C)(=O)=O)CC1 [Compound 135, (S)-benzyl(6-acrylamido-1-(4-(methylsulfonyl)piperazin-1-yl)-1-oxohexan-2-yl)carbamate] | 0.00833 s⁻¹ | 1310 M⁻¹ s⁻¹ |  | 0.0153 s⁻¹ | 2730 M⁻¹ s⁻¹ | 
6 | C=CC(=O)NCCCC[C@H](NC(=O)OCc1ccccc1)C(=O)N1CCN(C(=O)c2ccncc2)CC1 [Compound 154, (S)-benzyl-(6-acrylamido-1-(4-isonicotinoylpiperazin-1-yl)-1-oxohexan-2-yl)carbamate] |  |  |  |  |  | kinact (TG2 [1]; [4]): 0.0238 s⁻¹; kinact/KI (TG2 [1]; Table 8): 617 M⁻¹ s⁻¹
7 | C=CC(=O)NCCC[C@H](NC(=O)OCc1ccccc1)C(=O)N1CCN(S(=O)(=O)c2cccc3c(N(C)C)cccc23)CC1 [Compound 117, (S)-benzyl (5-acrylamido-1-(4-((5-(dimethylamino)naphthalen-1-yl)sulfonyl)piperazin-1-yl)-1-oxopentan-2-yl)carbamate] |  |  | 69 to 70 °C | 0.0134 s⁻¹ | 1480 M⁻¹ s⁻¹ | kinact (TG2 [1]; Table 6, read-out: kinact (converted)): 0.0197 s⁻¹; enzyme inactivation, relative observed rate constants (kobs) (TG2 [1]): reappearance of enzyme inhibition albeit only modestly; kinact/KI (TG2 [1]; Table 6): 412 M⁻¹ s⁻¹
8 | C=CC(=O)NCCCC[C@H](NC(=O)OCc1ccccc1)C(=O)NCCCCNS(=O)(=O)c1cccc2c(N(C)C)cccc12 [Compound 109, (S)-benzyl (6-acrylamido-1-((4-(5-(dimethylamino)naphthalene-1-sulfonamido)butyl)amino)-1-oxohexan-2-yl)carbamate] |  |  | 54 to 56 °C |  | 883 M⁻¹ s⁻¹ | kinact (TG2 [1]; [5]): 0.0365 s⁻¹; kinact/KI (TG2 [1]; Table 5): 1350 M⁻¹ s⁻¹
9 | C=CC(=O)NCC[C@H](NC(=O)OCc1ccccc1)C(=O)N1CCN(S(=O)(=O)c2cccc3c(N(C)C)cccc23)CC1 [Compound 116, (S)-benzyl (4-acrylamido-1-(4-((5-(dimethylamino)naphthalen-1-yl)sulfonyl)piperazin-1-yl)-1-oxobutan-2-yl)carbamate] |  |  |  |  |  | enzyme inactivation, relative observed rate constants (kobs) (TG2 [1]): no significant enzyme inactivation was observed
10 | C=CC(=O)NCCCC[C@H](NC(=O)OCc1ccccc1)C(=O)N1CCN(S(=O)(=O)C2CCCCC2)CC1 [Compound 132, (S)-benzyl (6-acrylamido-1-(4-(cyclohexylsulfonyl)piperazin-1-yl)-1-oxohexan-2-yl)carbamate] | 0.0115 s⁻¹ | 1050 M⁻¹ s⁻¹ |  | 0.0083 s⁻¹ | 2430 M⁻¹ s⁻¹ | 
11 | C=CC(=O)NCCC[C@H](NC(=O)OCc1ccccc1)C(=O)N1CCN(C(=O)c2ccccc2)CC1 [Compound 149, (S)-benzyl (5-acrylamido-1-(4-benzoylpiperazin-1-yl)-1-oxopentan-2-yl)carbamate] |  |  |  |  |  | kinact (TG2 [1]; [4]): 0.0795 s⁻¹; kinact/KI (TG2 [1]; Table 8): 2170 M⁻¹ s⁻¹
12 | C=CC(=O)NCCC[C@H](NC(=O)OCc1ccccc1)C(=O)N1CCN(C(C)=O)CC1 [Compound 151, (S)-benzyl(1-(4-acetylpiperazin-1-yl)-5-acrylamido-1-oxopentan-2-yl)carbamate] |  |  |  |  |  | kinact (TG2 [1]; [4]): 0.0343 s⁻¹; overall inhibition efficiency compared to sulfonamide counterpart (TG2 [1]; amide (Table 8) vs sulfonamide (Table 7)): almost three times less; kinact/KI (TG2 [1]; Table 8): 615 M⁻¹ s⁻¹
13 | C=CC(=O)NCCCC[C@H](NC(=O)OCc1ccccc1)C(=O)NCCCNS(=O)(=O)c1cccc2c(N(C)C)cccc12 [Compound 110, (S)-benzyl (6-acrylamido-1-((3-(5-(dimethylamino)naphthalene-1-sulfonamido)propyl)amino)-1-oxohexan-2-yl)carbamate] |  |  | 65 to 67 °C |  | 783 M⁻¹ s⁻¹ | kinact (TG2 [1]; [5]): 0.0142 s⁻¹; kinact/KI (TG2 [1]; Table 5): 460 M⁻¹ s⁻¹
14 | C=CC(=O)NCCCC[C@H](NC(=O)OCc1ccccc1)C(=O)N1CCN(C(=O)c2ccccn2)CC1 [Compound 152, (S)-benzyl(6-acrylamido-1-oxo-1-(4-picolinoylpiperazin-1-yl)hexan-2-yl)carbamate] |  |  |  |  |  | kinact (TG2 [1]; Table 8): 0.0488 ± 0.00483 s⁻¹; kinact/KI (10^3M^−1 min^−1) (TG2 [1]; Table 8): 91.3 ± 17.9 10^3M^−1 min^−1
15 | C=CC(=O)NCCCC[C@H](NC(=O)OCc1ccccc1)C(=O)N1CCN(C(=O)c2cccnc2)CC1 [Compound 153, (S)-benzyl (6-acrylamido-1-(4-nicotinoylpiperazin-1-yl)-1-oxohexan-2-yl)carbamate] |  |  |  |  |  | kinact (TG2 [1]; [4]): 0.024 s⁻¹; kinact/KI (TG2 [1]; Table 8): 1020 M⁻¹ s⁻¹
16 | C=CC(=O)NCCCC[C@H](NC(=O)OCc1ccccc1)C(=O)N1CCN(S(=O)(=O)c2cccs2)CC1 [Compound 136, (S)-benzyl(6-acrylamido-1-oxo-1-(4-(thiophen-2-ylsulfonyl)piperazin-1-yl)hexan-2-yl)carbamate] | 0.0247 s⁻¹ | 613 M⁻¹ s⁻¹ |  |  |  | 
17 | C=CC(=O)NCCCC[C@H](NC(=O)OCc1ccccc1)C(=O)NCCNS(=O)(=O)c1cccc2c(N(C)C)cccc12 [Compound 111, (S)-benzyl (6-acrylamido-1-((2-(5-(dimethylamino)naphthalene-1-sulfonamido)ethyl)amino)-1-oxohexan-2-yl)carbamate] |  |  |  | 0.0242 s⁻¹ | 1030 M⁻¹ s⁻¹ | kinact (TG2 [1]; [5]): 0.0242 s⁻¹; kinact/KI (TG2 [1]; Table 5): 1020 M⁻¹ s⁻¹
18 | C=CC(=O)NC[C@H](NC(=O)OCc1ccccc1)C(=O)N1CCN(S(=O)(=O)c2cccc3c(N(C)C)cccc23)CC1 [Compound 115, (S)-benzyl (3-acrylamido-1-(4-((5-(dimethylamino)naphthalen-1-yl)sulfonyl)piperazin-1-yl)-1-oxopropan-2-yl)carbamate] |  |  |  |  |  | enzyme inactivation, relative observed rate constants (kobs) (TG2 [1]): no significant enzyme inactivation was observed

Further lines, with some results ahead:

Row | kinact (TG2 [1]; [3]) | kinact/KI (TG2 [1]; Table 7) | melting point | kinact (TG2 [2]) | kinact/KI (TG2 [2]) | SMILES | further results
19 |  |  | 48 to 49 °C |  |  | C=CC(=O)NCCCC[C@H](NC(=O)OCc1ccccc1)C(=O)N1CCN(C(=O)Cc2ccccc2)CC1 [Compound 150, (S)-benzyl (6-acrylamido-1-oxo-1-(4-(2-phenylacetyl)piperazin-1-yl)hexan-2-yl)carbamate] | kinact (TG2 [1]; [4]): 0.0377 s⁻¹; kinact/KI (TG2 [1]; Table 8): 1880 M⁻¹ s⁻¹
20 | 0.00783 s⁻¹ | 888 M⁻¹ s⁻¹ |  | 0.0102 s⁻¹ | 2180 M⁻¹ s⁻¹ | C=CC(=O)NCCCC[C@H](NC(=O)OCc1ccccc1)C(=O)N1CCN(S(=O)(=O)c2ccccc2)CC1 [Compound 130, (S)-benzyl (6-acrylamido-1-oxo-1-(4-(phenylsulfonyl)piperazin-1-yl)hexan-2-yl)carbamate] | 
21 |  |  |  | 0.0202 s⁻¹ | 4000 M⁻¹ s⁻¹ | C=CC(=O)NCCCC[C@H](NC(=O)OCc1ccccc1)C(=O)N1CCN(C(=O)c2ccc3ccccc3c2)CC1 [AA10, (S)-benzyl(1-(4-(2-naphthoyl)piperazin-1-yl)-6-acrylamido-1-oxohexan-2-yl)carbamate] | kinact (TG2 [1]; [4]): 0.0202 s⁻¹; kinact/KI (TG2 [1]; Table 8): 1500 M⁻¹ s⁻¹
